Results reported in patent publication US12281225B2, “Process for preparing stable polymers containing vinylimidazole” (BASF SE, priority 2018, dated 2025).

Assay: Physical stability; visual assessment (color, turbidity, phase separation)
Assay type: physicochemical
Parameters: key: ++: no discernible change with respect to color, turbidity or phase separation; +: marginal change in color number, somewhat increased Tyndall effect but no turbidity; 0: easily discernible increase in color number and moderate turbidity−no phase separation; −: turbidity and change in color number readily discernible by visual assessment; −−: strong color change with strong turbidity and incipient phase separation
Text: Physical stability; visual assessment according to:
++=no discernible change with respect to color, turbidity or phase separation; +=marginal change in color number, somewhat increased Tyndall effect but no turbidity; 0=easily discernible increase in color number and moderate turbidity−no phase separation; − turbidity and change in color number readily discernible by visual assessment; −− strong color change with strong turbidity and incipient phase separation.
Before storage, all batches could be rated ++ (no turbidity or phase separation; no influence of the biocide on the color number of the product).

[1] = Polymer P5 (HP56) with stabilizer

Row | Molecule | Physical stability, 60 d 40° C.* (Polymer P1 with stabilizer) | Physical stability, 60 d 40° C.* (Polymer P2 with stabilizer) | Physical stability, 60 d 40° C.* (Polymer P3 with stabilizer) | Physical stability, 60 d 40° C.* (Polymer P4 with stabilizer) | Physical stability, 60 d 40° C.* [1] | Physical stability, 60 d 40° C.* (Polymer P6 with stabilizer) | Physical stability, 60 d 40° C.* (Polymer P7 with stabilizer) | Physical stability, 60 d 40° C.* (Polymer P8 with stabilizer) | Physical stability, 60 d 40° C.* (Polymer P9 with stabilizer)
1 | CCCCCCCCn1sc(Cl)c(Cl)c1=O [DCOIT, dichloroctylisothiazolinone] | −− | −− | −− | − | −− | −− | −− | −− | −
2 | CCCCCCCCn1sccc1=O [OIT, octylisothiazolinone] | −− | −− | −− | −− | −− | −− | −− | −− | −−
3 | Cn1sc(Cl)cc1=O [CMIT, 5-chloro-N-methylisothiazolin-3-one] | −− | −− | − | −− | −− | −− | − | −− | −−
4 | CCCCNC(=O)OCC#CI [Iodopropynyl butyl carbamate, iodopropynyl butyl carbamate] | − | − | − | − | − | − | − | − | −
5 | CCCCCCCCCCCCCCCC[N+](C)(C)Cc1ccccc1.[Cl-] [Polymer 16-BAC, cetylalkonium chloride] | + | + | + | + | + | + | + | + | ++
6 | O=c1[nH]sc2ccccc12 [BIT, 1,2-benzisothiazolin-3-one] | − | − | − | − | − | − | − | −− | −
7 | Cn1sccc1=O [MIT, methyl-4-isothiazolin-3-one] | − | − | − | − | − | − | − | − | −
8 | benzalkonium chloride [BAC] | + | + | ++ | + | + | + | ++ | + | +
